Experiments:
[1] = molecular target: T1, Melatonin receptor type 1B (Homo sapiens, UniProt P49286)
T1 sequence (P49286 whole entry): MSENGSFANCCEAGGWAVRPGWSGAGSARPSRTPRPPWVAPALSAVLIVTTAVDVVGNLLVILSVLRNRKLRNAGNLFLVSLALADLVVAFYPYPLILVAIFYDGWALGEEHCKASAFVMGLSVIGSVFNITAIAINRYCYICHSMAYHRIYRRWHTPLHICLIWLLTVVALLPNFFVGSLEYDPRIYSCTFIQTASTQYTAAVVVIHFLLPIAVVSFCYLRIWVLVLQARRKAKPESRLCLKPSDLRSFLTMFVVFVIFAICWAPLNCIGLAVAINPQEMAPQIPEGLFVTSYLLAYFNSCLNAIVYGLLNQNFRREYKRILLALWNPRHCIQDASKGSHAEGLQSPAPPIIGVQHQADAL

[2] = molecular target: Melatonin receptor type 1A (Homo sapiens, UniProt P48039)
Melatonin receptor type 1A, sequence (P48039 whole entry): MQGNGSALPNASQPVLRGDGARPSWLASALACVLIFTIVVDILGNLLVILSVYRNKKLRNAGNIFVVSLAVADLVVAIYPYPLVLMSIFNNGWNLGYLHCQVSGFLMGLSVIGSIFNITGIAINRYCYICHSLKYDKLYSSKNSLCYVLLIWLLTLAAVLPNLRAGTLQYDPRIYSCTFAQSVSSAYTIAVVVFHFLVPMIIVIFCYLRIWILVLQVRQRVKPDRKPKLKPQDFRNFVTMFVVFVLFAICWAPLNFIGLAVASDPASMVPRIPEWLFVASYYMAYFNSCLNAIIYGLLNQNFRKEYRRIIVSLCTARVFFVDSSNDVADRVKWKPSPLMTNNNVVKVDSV

Row | SMILES | Ki [1] | Ki [2]
1 | NCCc1c[nH]c2ccc(O)cc12 [[3H]-5-HT] | > 10 µM | –
2 | CC(=O)n1cc(CCN)c2cc(O)ccc21 [NSC_260803] | 0.595 µM | 0.986 µM
3 | COc1cc2nc(N3CCN(C(=O)c4ccco4)CC3)nc(N)c2cc1OC [[3H]-Minipress] | > 10 µM | > 10 µM
